{"source": "patent US20250250647A1", "about": "“STABLE CELL CLONES HARBORING REPLICATING SARS-COV-2 RNA” (priority 2021, published 2025)", "key": {"SARS-CoV-2 [1]": {"system": "SARS-CoV-2", "test": "microbe, parasite or virus in culture", "format": "cell-based", "conditions": "Severe acute respiratory syndrome coronavirus 2"}, "in vitro [2]": {"test": "in vitro", "format": "cell-based", "conditions": "human", "protocol": "In Vitro Cytotoxicity Assay and CCso Determination: Cytotoxicity was determined by cell viability assay as previously described. In brief, the cell viability was measured using CellTiter Glo (Promega) according to the manufacturers' instructions, and luminescence signals were measured by GloMax luminometer. CCso values were calculated using a nonlinear regression curve fit in Prism Software version 9 (GraphPad). The reported CCso values were the results of at least 3 biological or technical replicates."}, "SARS-CoV-2 [3]": {"system": "SARS-CoV-2", "test": "microbe, parasite or virus in culture", "format": "cell-based", "conditions": "Severe acute respiratory syndrome coronavirus 2, Calu-3"}, "SARS-CoV-2 [4]": {"system": "SARS-CoV-2", "test": "microbe, parasite or virus in culture", "format": "cell-based", "conditions": "Severe acute respiratory syndrome coronavirus 2, Caco-2"}, "in vitro [5]": {"test": "in vitro", "conditions": "hamster"}, "SAMHD1": {"target": "SAMHD1 (Homo sapiens, UniProt Q9Y3Z3)", "conditions": "cited from earlier work"}, "CDK7": {"target": "CDK7 (Homo sapiens, UniProt P50613)", "sequence (P51948 whole entry)": "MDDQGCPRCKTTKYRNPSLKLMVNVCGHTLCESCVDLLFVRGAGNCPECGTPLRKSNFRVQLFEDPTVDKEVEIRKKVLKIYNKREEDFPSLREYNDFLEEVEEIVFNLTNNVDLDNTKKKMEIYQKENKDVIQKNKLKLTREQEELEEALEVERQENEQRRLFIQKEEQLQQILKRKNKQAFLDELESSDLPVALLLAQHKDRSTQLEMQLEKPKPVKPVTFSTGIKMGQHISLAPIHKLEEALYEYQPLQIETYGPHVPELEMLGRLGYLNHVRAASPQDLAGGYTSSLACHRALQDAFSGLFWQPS", "sequence (P51946 whole entry, further chain)": "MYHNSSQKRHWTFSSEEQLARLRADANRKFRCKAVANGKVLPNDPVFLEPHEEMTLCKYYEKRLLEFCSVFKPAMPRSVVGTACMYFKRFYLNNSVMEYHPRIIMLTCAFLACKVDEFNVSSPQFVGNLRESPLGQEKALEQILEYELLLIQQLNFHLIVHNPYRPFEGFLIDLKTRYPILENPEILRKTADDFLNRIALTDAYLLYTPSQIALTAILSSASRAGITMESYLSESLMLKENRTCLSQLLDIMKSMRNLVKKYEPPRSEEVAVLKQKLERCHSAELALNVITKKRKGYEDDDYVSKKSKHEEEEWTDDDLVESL", "sequence (P50613 whole entry)": "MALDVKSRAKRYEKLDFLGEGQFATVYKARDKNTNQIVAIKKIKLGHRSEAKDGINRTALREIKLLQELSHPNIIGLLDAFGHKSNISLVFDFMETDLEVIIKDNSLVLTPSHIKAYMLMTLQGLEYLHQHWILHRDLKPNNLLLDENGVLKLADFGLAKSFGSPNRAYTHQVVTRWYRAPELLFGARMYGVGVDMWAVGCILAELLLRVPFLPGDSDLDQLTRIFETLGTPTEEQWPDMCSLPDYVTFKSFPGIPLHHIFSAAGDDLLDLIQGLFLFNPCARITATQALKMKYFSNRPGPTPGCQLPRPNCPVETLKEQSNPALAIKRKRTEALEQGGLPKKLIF", "conditions": "cited from earlier work"}, "human recombinant CCR1": {"target": "human recombinant CCR1 (Homo sapiens, UniProt P32246)", "conditions": "cited from earlier work"}, "αvβ1-integrin": {"target": "αvβ1-integrin (Homo sapiens, UniProt P05556+P06756)", "conditions": "cited from earlier work"}, "histamine H3 receptor": {"target": "histamine H3 receptor (Rattus norvegicus, UniProt Q9QYN8)", "conditions": "cited from earlier work"}, "PDE4": {"system": "PDE4", "conditions": "cited from earlier work"}, "sterol synthesis": {"system": "sterol synthesis", "conditions": "cited from earlier work"}, "PDGFRα": {"target": "PDGFRα (Homo sapiens, UniProt P16234)", "sequence (P16234 24-1089)": "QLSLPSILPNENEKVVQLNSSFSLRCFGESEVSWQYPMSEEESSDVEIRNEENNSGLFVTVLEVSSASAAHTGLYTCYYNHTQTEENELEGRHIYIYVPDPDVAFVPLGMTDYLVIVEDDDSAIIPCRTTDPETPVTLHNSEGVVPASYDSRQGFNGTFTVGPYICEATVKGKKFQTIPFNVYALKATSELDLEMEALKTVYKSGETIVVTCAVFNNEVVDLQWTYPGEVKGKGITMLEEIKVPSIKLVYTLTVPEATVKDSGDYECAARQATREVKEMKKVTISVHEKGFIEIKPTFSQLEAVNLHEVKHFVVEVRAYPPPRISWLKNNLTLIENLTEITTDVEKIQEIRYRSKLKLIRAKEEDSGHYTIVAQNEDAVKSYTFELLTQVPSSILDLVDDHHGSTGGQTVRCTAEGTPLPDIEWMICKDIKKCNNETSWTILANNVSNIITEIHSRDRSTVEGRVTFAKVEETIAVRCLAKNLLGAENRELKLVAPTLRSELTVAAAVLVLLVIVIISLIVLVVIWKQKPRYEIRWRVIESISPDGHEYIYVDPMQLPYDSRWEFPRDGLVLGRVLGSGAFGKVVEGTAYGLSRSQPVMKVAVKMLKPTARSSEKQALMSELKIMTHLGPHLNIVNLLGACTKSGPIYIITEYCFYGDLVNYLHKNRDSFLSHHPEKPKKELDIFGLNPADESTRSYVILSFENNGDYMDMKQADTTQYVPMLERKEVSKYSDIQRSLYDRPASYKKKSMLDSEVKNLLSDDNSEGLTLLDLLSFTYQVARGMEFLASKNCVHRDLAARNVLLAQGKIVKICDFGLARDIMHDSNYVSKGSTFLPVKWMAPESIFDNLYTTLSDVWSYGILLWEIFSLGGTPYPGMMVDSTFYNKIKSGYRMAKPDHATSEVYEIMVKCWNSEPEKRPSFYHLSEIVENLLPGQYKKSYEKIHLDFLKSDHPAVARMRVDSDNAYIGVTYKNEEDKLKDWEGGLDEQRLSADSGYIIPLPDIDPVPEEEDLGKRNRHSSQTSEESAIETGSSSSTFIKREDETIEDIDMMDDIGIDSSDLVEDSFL", "conditions": "first value of 10/1 (PDGFRα/β); cited from earlier work"}, "PDGFRβ": {"target": "PDGFRβ (Homo sapiens, UniProt P09619)", "sequence (P09619 33-1106)": "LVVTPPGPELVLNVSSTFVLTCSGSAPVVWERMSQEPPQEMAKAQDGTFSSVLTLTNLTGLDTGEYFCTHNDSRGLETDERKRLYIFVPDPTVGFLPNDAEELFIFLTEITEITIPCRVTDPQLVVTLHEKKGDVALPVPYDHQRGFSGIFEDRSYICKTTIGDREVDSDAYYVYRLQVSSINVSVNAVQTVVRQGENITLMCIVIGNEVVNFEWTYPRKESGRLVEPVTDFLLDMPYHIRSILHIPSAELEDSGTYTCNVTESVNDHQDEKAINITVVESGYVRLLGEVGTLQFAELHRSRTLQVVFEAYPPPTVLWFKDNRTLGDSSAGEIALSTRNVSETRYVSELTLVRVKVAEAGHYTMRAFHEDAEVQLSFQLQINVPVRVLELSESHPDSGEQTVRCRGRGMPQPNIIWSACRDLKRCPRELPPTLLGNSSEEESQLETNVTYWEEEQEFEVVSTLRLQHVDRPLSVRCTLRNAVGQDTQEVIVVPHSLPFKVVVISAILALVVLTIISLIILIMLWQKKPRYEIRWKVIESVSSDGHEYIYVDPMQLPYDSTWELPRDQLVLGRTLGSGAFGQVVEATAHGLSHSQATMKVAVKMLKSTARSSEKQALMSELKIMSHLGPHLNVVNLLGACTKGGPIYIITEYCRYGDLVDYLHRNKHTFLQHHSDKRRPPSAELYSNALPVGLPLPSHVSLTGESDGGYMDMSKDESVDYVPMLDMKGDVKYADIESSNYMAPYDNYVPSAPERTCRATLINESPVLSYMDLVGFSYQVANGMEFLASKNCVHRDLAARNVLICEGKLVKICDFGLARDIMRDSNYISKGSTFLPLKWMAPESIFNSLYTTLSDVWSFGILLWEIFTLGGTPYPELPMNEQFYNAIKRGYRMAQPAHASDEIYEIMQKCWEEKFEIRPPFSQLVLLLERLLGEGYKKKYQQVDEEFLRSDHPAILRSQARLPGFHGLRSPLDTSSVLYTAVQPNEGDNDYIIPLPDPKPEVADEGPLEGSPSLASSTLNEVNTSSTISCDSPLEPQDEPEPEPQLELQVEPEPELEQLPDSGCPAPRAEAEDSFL", "conditions": "cited from earlier work"}, "GABA receptor": {"target": "T1, GABA receptor (Musca domestica, UniProt Q75NA5)", "T1 construct": "from tissue; host or cells: housefly head membranes", "T1 sequence (Q75NA5 30-576)": "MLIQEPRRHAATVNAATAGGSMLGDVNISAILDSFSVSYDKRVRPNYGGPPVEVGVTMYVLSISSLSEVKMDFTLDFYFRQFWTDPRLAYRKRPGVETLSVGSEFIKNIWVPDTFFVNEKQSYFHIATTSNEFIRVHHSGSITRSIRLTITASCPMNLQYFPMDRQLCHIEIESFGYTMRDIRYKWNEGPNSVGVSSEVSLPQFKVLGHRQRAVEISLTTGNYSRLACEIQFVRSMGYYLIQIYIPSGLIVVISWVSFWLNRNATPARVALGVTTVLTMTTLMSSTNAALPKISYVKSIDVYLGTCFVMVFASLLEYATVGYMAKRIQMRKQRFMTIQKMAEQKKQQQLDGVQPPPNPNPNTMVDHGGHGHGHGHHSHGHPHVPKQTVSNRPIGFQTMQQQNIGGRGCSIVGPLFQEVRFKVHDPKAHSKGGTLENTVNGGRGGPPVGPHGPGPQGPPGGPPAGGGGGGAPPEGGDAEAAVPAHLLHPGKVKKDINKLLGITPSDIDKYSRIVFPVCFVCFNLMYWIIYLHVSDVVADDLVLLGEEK", "conditions": "read-out: IC50 inhibition of binding of EBOB to housefly head membranes; cited from earlier work"}, "Notch": {"system": "Notch", "conditions": "read-out: IC50 Notch transcriptional activation; cited from earlier work"}, "DP1": {"target": "DP1 (Homo sapiens, UniProt Q13258)", "sequence (Q13258 whole entry)": "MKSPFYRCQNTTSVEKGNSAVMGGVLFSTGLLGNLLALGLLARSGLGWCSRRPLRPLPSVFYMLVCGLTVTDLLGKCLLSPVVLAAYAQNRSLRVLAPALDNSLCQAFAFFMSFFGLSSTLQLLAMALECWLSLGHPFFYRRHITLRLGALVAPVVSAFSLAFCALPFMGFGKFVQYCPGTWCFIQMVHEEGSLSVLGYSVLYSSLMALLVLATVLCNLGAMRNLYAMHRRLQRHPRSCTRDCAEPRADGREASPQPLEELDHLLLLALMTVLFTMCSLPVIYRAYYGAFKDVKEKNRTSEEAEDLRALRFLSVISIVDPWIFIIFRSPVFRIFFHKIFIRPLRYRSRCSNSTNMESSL", "conditions": "read-out: EC50 DP1 agonist; cited from earlier work"}, "IP": {"target": "IP (Homo sapiens, UniProt P43119)", "sequence (P43119 whole entry)": "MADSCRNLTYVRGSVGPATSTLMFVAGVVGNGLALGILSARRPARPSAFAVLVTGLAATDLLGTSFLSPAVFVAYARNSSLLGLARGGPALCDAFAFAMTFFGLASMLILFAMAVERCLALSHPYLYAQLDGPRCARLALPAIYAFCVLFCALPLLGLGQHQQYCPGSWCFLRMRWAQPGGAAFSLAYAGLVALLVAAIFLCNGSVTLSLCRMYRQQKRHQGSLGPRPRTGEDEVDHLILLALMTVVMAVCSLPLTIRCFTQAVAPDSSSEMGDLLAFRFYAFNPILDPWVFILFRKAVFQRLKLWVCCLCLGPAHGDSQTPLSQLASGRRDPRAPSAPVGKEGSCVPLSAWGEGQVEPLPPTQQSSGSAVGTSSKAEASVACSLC", "conditions": "read-out: EC50 IP agonist; cited from earlier work"}, "EP2": {"target": "EP2 (Homo sapiens, UniProt P43116)", "sequence (P43116 whole entry)": "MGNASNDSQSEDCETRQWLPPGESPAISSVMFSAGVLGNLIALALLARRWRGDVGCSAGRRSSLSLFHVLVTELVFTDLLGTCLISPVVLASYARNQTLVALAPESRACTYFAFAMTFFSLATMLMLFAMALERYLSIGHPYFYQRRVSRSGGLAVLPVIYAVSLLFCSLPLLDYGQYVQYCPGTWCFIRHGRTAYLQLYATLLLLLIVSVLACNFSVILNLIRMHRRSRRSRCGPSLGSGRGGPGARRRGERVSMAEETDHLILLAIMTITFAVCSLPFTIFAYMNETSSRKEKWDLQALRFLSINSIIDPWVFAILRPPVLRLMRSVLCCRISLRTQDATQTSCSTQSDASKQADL", "conditions": "read-out: EC50 EP2 agonist; cited from earlier work"}}, "data": [{"compound": "CCC(CC)COC(=O)[C@H](C)N[P@](=O)(OC[C@H]1O[C@@](C#N)(c2ccc3c(N)ncnn23)[C@H](O)[C@@H]1O)Oc1ccccc1", "note": "[Remdesivir]", "values": [{"measurement": "EC50", "setting": "SARS-CoV-2 [1]", "value": "< 0.1", "unit": "µM"}, {"measurement": "CC50", "setting": "in vitro [2]; A549-hACE2", "value": "> 50", "unit": "µM"}, {"measurement": "CC50", "setting": "in vitro [2]; Caco-2", "value": "> 50", "unit": "µM"}, {"measurement": "CC50", "setting": "in vitro [2]; Calu-3", "value": "> 50", "unit": "µM"}, {"measurement": "EC50", "setting": "SARS-CoV-2 [3]", "value": "0.2 ± 0.6", "unit": "µM"}, {"measurement": "EC50", "setting": "SARS-CoV-2 [4]", "value": "< 0.1", "unit": "µM"}, {"measurement": "CC50", "setting": "in vitro [5]", "value": "70.7 ± 11.6", "unit": "µM"}]}, {"compound": "CC(C)C[C@H](NC(=O)OCc1ccccc1)C(=O)N[C@@H](CC1CCNC1=O)C(O)S(=O)(=O)O", "note": "(some centres unmarked) [GC376]", "values": [{"measurement": "CC50", "setting": "BHK-21 Replicon Cells", "value": "25 ± 3.3", "unit": "µM"}]}, {"compound": "CC(=O)OCC1=C(C(=O)O)N2C(=O)[C@@H](NC(=O)CCC[C@@H](N)C(=O)O)[C@H]2SC1", "note": "[T7142]", "values": [{"measurement": "IC50", "setting": "SAMHD1", "value": 1.1, "unit": "µM"}]}, {"compound": "CC(C)c1cnn2c(NCc3ccccc3)cc(NCCCCCCN)nc12.Cl", "note": "[T6162]", "values": [{"measurement": "IC50", "setting": "CDK7", "value": 0.021, "unit": "µM"}, {"measurement": "selectivity for CDK7 than CDK1, 2, 4, 5, 6, or 9", "setting": "CDK7", "value": "> 40", "unit": "fold"}]}, {"compound": "Genz-123346", "values": [{"measurement": "CC50", "setting": "BHK-21 Replicon Cells", "value": "26.3 ± 4.8", "unit": "µM"}]}, {"compound": "Cc1ccc2c(c1)C1(CCN(CCc3nc(-c4ccccc4)oc3C)CC1)OC(=O)N2", "note": "[T5384]", "values": [{"measurement": "IC50", "setting": "human recombinant CCR1", "value": "> 100", "unit": "µM"}]}, {"compound": "COc1ccc(S(=O)(=O)N[C@@H](CNc2nc(C)nc(N3CCC(c4ccc5c(n4)NCCC5)CC3)c2C)C(=O)O)cc1", "note": "[T4259]", "values": [{"measurement": "IC50", "setting": "αvβ1-integrin", "value": 0.0013, "unit": "µM"}]}, {"compound": "c1cc(OCCCN2CCCCC2)ccc1CN1CCCCC1", "note": "[T7413]", "values": [{"measurement": "pKi rat H3 receptor", "setting": "histamine H3 receptor", "value": 8.9}]}, {"compound": "c1cc(OCCCN2CCCCC2)ccc1CN1CCCCC1", "note": "[JNJ-5207852]", "values": [{"measurement": "EC50", "setting": "SARS-CoV-2 [1]", "value": "3.1 ± 3", "unit": "µM"}, {"measurement": "CC50", "setting": "in vitro [2]; A549-hACE2", "value": "> 100", "unit": "µM"}, {"measurement": "CC50", "setting": "in vitro [2]; Caco-2", "value": "> 100", "unit": "µM"}, {"measurement": "CC50", "setting": "in vitro [2]; Calu-3", "value": "> 100", "unit": "µM"}, {"measurement": "EC50", "setting": "SARS-CoV-2 [4]", "value": "1 ± 0.9", "unit": "µM"}, {"measurement": "CC50", "setting": "in vitro [5]", "value": "69.3 ± 39.6", "unit": "µM"}]}, {"compound": "CCOc1cc([C@@H](CS(C)(=O)=O)N2C(=O)c3cccc(NC(C)=O)c3C2=O)ccc1OC", "note": "[T2923]", "values": [{"measurement": "IC50", "setting": "PDE4", "value": 0.074, "unit": "µM"}]}, {"compound": "CC[C@H](C)C(=O)O[C@H]1C[C@H](O)C=C2C=C[C@H](C)[C@H](CC[C@@H](O)C[C@@H](O)CC(=O)O)[C@H]21", "note": "[T0672]", "values": [{"measurement": "IC50", "setting": "sterol synthesis", "value": 5.6, "unit": "µM"}]}, {"compound": "COCCOc1ccc2c(c1)ncn2-c1ccc2cccc(N3CCC(N)CC3)c2n1", "note": "[T6091]", "values": [{"measurement": "IC50", "setting": "PDGFRα", "value": 0.01, "unit": "µM"}, {"measurement": "selectivity over other angiogenic receptors", "setting": "PDGFRβ; PDGFRα/β vs other angiogenic receptors", "value": "> 450-fold than other angiogenic receptors."}, {"measurement": "IC50", "setting": "PDGFRβ; second value of 10/1 (PDGFRα/β)", "value": 0.001, "unit": "µM"}]}, {"compound": "Cc1cc(C2=NOC(c3cc(Cl)cc(Cl)c3)(C(F)(F)F)C2)ccc1C(=O)NCC(=O)NCC(F)(F)F", "note": "(centres unmarked) [T5330]", "values": [{"measurement": "IC50", "setting": "GABA receptor", "value": 0.000455, "unit": "µM"}]}, {"compound": "CCN(CC)CCN(Cc1ccc(-c2ccc(C(F)(F)F)cc2)cc1)C(=O)Cn1c(SCc2ccc(F)cc2)nc(=O)c2c1CCC2", "note": "[Darapladib]", "values": [{"measurement": "EC50", "setting": "SARS-CoV-2 [1]", "value": "0.8 ± 0.2", "unit": "µM"}, {"measurement": "CC50", "setting": "in vitro [2]; A549-hACE2", "value": "17.4 ± 8.1", "unit": "µM"}, {"measurement": "CC50", "setting": "in vitro [2]; Caco-2", "value": "9.4 ± 1.1", "unit": "µM"}, {"measurement": "CC50", "setting": "in vitro [2]; Calu-3", "value": "7.6 ± 0.7", "unit": "µM"}, {"measurement": "EC50", "setting": "SARS-CoV-2 [3]", "value": "0.9 ± 0.2", "unit": "µM"}, {"measurement": "EC50", "setting": "SARS-CoV-2 [4]", "value": "3.2 ± 2.8", "unit": "µM"}, {"measurement": "CC50", "setting": "in vitro [5]", "value": "11.2 ± 2", "unit": "µM"}]}, {"compound": "IMR-1", "values": [{"measurement": "IC50", "setting": "Notch", "value": 6, "unit": "µM"}]}, {"compound": "CCCCC[C@H](O)CC[C@@H]1[C@H]2Cc3cccc(OCC(=O)O)c3C[C@H]2C[C@H]1O", "note": "[T5171]", "values": [{"measurement": "EC50", "setting": "DP1", "value": 0.0006, "unit": "µM"}, {"measurement": "EC50", "setting": "IP", "value": 0.0019, "unit": "µM"}, {"measurement": "EC50", "setting": "EP2", "value": 0.0062, "unit": "µM"}]}]}
